Test results: article PMC7986605 (Journal of Neuroscience Research, 2021)

These compounds were tested on primary hippocampal/cortical neuronal and glial cultures. Conditions: Sprague-Dawley, rat.

Q: With `CSc1ccc2c(c1)N(CCC1CCCCN1C)c1ccccc1S2` (stereo not drawn) [thioridazine] as the compound, how does the “concentrations at which the compound was toxic/cytotoxic” value read?
A: above 1 µM

Same assay, conditions: α-synuclein oligomer 1.0 μM; 0.5–20 µM

Q: With `CC(NC(C)(C)C)C(=O)c1cccc(Cl)c1` (stereo not drawn) [bupropion] as the compound, how does the “inhibition of α-synuclein oligomer-induced trafficking deficits (in words)” value (shortened to “inhibition”) read?
A: weakly inhibited

Q: `NC(=O)N1c2ccccc2C=Cc2ccccc21` [carbamazepine] was tested. Which “inhibition” value did it give?
A: inhibited deficits at low concentrations

Q: Which “inhibition” value does the source give for `CCCCCCNC(=O)n1cc(F)c(=O)[nH]c1=O` [carmofur] here?
A: weakly inhibited

Q: `CCCCC1=NC2(CCCC2)C(=O)N1Cc1ccc(-c2ccccc2-c2nnn[nH]2)cc1` [irbesartan] was tested. Which “inhibition” value did it give?
A: weakly inhibited

Q: How did the “inhibition” value turn out when `CC[C@H](C)C(=O)O[C@H]1C[C@@H](C)C=C2C=C[C@H](C)[C@H](CC[C@@H]3C[C@@H](O)CC(=O)O3)[C@H]21` [lovastatin] was run?
A: inhibited deficits at low concentrations
